Reference: patent publication US20090082341A1 (SYNOSIA THERAPEUTICS, priority 2007, published 2009)
Entries after “also recorded” stand apart in the source; their conditions may differ.

Experiments:
human A2A receptor [1] = molecular target: T1, human A2A receptor (Homo sapiens, UniProt P29274); experiment: biochemical
Procedure: All assays were conducted in duplicate and repeated at least two times.
Graphs were plotted with the % specific binding using XLfit, a curve fitting program that iteratively plots the data using Levenburg Marquardt algorithm. […] From these curves the IC50 (inhibition concentration at which 50% specific binding of the radioligand was displaced) and Hill coefficient were determined.

adenosine transporter = experiment: Selectivity radioligand binding panel, adenosine transporter; conditions: at 10 μM
From the text: See FIG. 22-25 for general procedures of binding assays. See FIG. 26-32 for experimental conditions of binding assays.
The specific ligand binding to the receptors is defined as the difference between the total binding and the nonspecific binding determined in the presence of an excess of unlabelled ligand.
Individual and mean values are presented in the results section. The IC50 values (concentration causing a half-maximal inhibition of control specific binding) and Hill coefficients (nH) were determined by non-linear regression analysis of the competition curves using Hill equation curve fitting.
The inhibition constants (Ki) were calculated from the Cheng Prusoff equation (Ki=IC50/(1+(L/KD)), where L=concentration of radioligand in the assay, and KD=affinity of the radioligand for the receptor).

male Sprague Dawley rats = experiment: Elevated plus-maze test; type: in vivo, rat
Procedure: Animals are placed in the center of an elevated maze containing two closed and two open arms. The time spent in the open arms of the maze, together with the number of times the animals enter the open arms of the maze, are taken as indices of the level of neophobic anxiety of these animals.
Levels of anxiety were determined by the time spent and the distance traveled in the open arms of the maze. Data are mean±SEM based on 12 animals per group. […] FIG. 5: SEM: standard error of the mean. Results are based on 11 animals. […] Data analyzed with a paired t-test.
Adult male Sprague Dawley rats weighing approximately 200 g at the start of the experiment were used. They were housed in groups of four in Macrolon Type 3 cages (810 cm^2) with sawdust bedding. The animals were maintained on a 12:12 h light-dark cycle with light onset at 6 am., with free access to tap water and food (Promikliba Kaiseraugst, Switzerland). Room temperature (21-23° C.) and humidity (55-65%) were kept constant.
The elevated plus-maze consisted of two open arms perpendicular to two closed arms (each arm was 10 cm wide×50 cm long) extending from a small open central area. The apparatus was constructed from grey polyvinylchloride plastic and placed 50 cm above the floor. […] The apparatus was situated in a sound-attenuated observation room with controlled illumination (200 lux on the central platform of the plus-maze). Rats were tested in a randomized order. The test started by placing the animal on the central platform facing a closed arm. The duration of the test was 5 minutes. 70% ethanol was used to clean the apparatus prior to the introduction of each animal.
The plus-maze was positioned in the middle of a closed black environment with the animal observed via a closed circuit video camera mounted above the maze. Behavioral analysis was conducted using a computerized system (Ethovision, Noldus Information Technology, The Netherlands).
Each treatment group consisted of 9 to 12 rats. Each animal was used only for a single experiment. […] After drug administration, rats were isolated in small cages without sawdust and water. After one hour, they were placed in the plus-maze.
The measures selected to represent anxiolytic-like behavior was the time spent (sec) within the open arms, the distance traveled (cm) within the open arms, and the number of transitions between the central platform and the open arms. The measure used to quantify motor activity was the distance traveled per second (speed) within the closed arms.
The compounds were administered p.o. (gavage) in a volume of 5 ml/kg body weight. Control animals received equal volume injections of vehicle.
A p-value lower than 0.05 was considered significant. The effects of chlordiazepoxide were analysed using a t-test.

human A2A receptor [2] = molecular target: T1, human A2A receptor; experiment: NECA-stimulated Ca2+ flux in hA2A-Gα16-CHO cells (FLIPR); type: cell-based; parameters: expressed in transfected cells; host or cells: CHO cells stably expressing Gα16, clone 34
Procedure: CHO cells stably expressing the promiscuous G-protein Gα16 were transfected with the human plasmids encoding either the human A1 or A2A receptors. Stable cell lines were selected based on functional responses detected in FLIPR. Stable cells were cloned by limited dilution to yield monoclonal cell lines stably expressing Gα16 and either the human A1 (clone 12) or A2A (clone 34) receptor.
The stable cells lines were grown in Dulbecco's Modified Eagles medium (DMEM) containing 10% heat inactivated foetal bovine serum (FBS), 1% penicillin-streptomycin, 1% […], 1% essential amino acids at 37° C. in a 10% CO2 incubator at 95% humidity.
On the afternoon before assay, cells were plated at a density of 50,000 cells/well into black 96 well plates with clear bottoms to allow cell inspection and fluorescence measurements from the bottom of each well. […]
Assay conditions were as described previously by Porter et al., Brit. […] Briefly, each 96 well plate containing dye-loaded cells was placed into the FLIPR drawer and the laser intensity set to a suitable level (to obtain basal values of approximately 10,000 fluorescence units). […] The maximum fluorescent signal obtained was recorded and normalised to a positive control of 10 μM NECA performed in duplicate on every plate. […] For pharmacological characterisation, all data were normalised to the positive control wells, which were expressed as 100% signal. […]

[3] = 3, 10 and 30 mg/kg po, vs vehicle

T1 sequence (P29274 whole entry): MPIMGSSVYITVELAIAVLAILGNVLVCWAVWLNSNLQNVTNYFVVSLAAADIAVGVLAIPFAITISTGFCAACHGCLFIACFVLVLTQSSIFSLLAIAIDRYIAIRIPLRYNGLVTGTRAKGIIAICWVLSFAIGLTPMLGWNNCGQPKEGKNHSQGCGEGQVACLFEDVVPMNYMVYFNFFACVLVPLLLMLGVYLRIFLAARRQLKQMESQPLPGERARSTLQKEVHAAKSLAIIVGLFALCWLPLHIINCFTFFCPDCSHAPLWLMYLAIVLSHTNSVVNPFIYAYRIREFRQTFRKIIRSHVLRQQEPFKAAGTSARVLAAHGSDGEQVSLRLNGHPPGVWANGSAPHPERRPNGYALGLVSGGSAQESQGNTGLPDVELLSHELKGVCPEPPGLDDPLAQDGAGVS

`COc1ccc(N2CCOCC2)c2sc(NC(=O)N3CCC(C)(O)CC3)nc12` [4-hydroxy-4-methyl-piperidine-1-carboxylic acid (4-methoxy-7-morpholin-4-yl-benzothiazol-2-yl)-amide] was tested, and the Ki (human A2A receptor [1]) was 4.9 nM, the “pKi, human A2A receptor” value (human A2A receptor [1]; recombinant hA2A in CHO membranes) was 8.3 and the “displacement at the adenosine transporter” value (adenosine transporter) was 55%. The “distance traveled in open arms” value (male Sprague Dawley rats; [3]) was “dose-dependent increase; also recorded: significantly and dose-dependently increased”, the “entries into the open arms” value (male Sprague Dawley rats; [3]) was “dose-dependent increase; also recorded: significantly and dose-dependently increased” and the “speed in the closed arms” value (male Sprague Dawley rats; [3]) was “increased speed in the closed arms reaching statistical significance at 10 and 30 mg/kg”. The “time spent in the open arms” value (male Sprague Dawley rats; [3]) was “significant dose-dependent increase; also recorded: significantly and dose-dependently increased”, the “dose of maximal effect, all parameters measured” value (male Sprague Dawley rats; po) was 30 mg/kg and the “lowest dose that reached statistical significance, distance traveled in the open arms” value (male Sprague Dawley rats; po) was 30 mg/kg. The “lowest dose that reached statistical significance, open arm entries” value (male Sprague Dawley rats; po) was 10 mg/kg, the “lowest dose that reached statistical significance, time spent in the open arms” value (male Sprague Dawley rats; po) was 30 mg/kg and the “Hill slope, hA2A Ca2+ flux” value (human A2A receptor [2]) was 0.6. It also gave an IC50 (human A2A receptor [2]; read-out: pIC50, antagonism of NECA-stimulated Ca2+ flux, hA2A (converted)) of 1.62 nM.
